Experimental data as given in patent publication US5091539A, “Azolyl cycloalkanol derivatives and agricultural fungicides” (Shionogi & Co., Ltd., priority 1984, dated 1992).

How the values were obtained:
Assay type in all cases: in vivo
Sphaerotheca fuliginea [1] = test: Control test to powdery mildew of cucumber (foliar and soil treatment); conditions: for Powdery mildew, Foliar Treatment, Curative Effect / Powdery mildew, Foliar Treatment, Protective Effect / Powdery mildew, Soil Treatment, Protective Effect / Foliar Treatment, Curative Effect / Foliar Treatment, Protective Effect / Soil Treatment, Protective Effect: index 0-10; for Protective Index, Foliar Treatment / Protective Index, Soil Treatment: first Table 4, 125 ppm, 14 days
Procedure: (1) Seeds of cucumber (Cultivar: Matsukaze) were sown in a pot of 9 cm in diameter and the pots were kept in a green house until the plant was grown for 2-3 leaf stage. The first leaf was sprayed with, (i) 3 ml each of solutions containing the test compound at the prescribed concetrations and dried by the air (foliar treatment). Inoculation of spore suspension of Sphaerotheca fuliginea by spraying was practised 2 days before the treatment (curative effect) or 1 day after the treatment (protective effect). Alternatively, (ii) 5 ml of the solution was applied at the root of the seedlings (soil treatment). The pots were kept in a greenhouse for 2 days and inoculation was practised in the same manner noted above. (iii) After sprayed with 3 ml of a solution of the test compound at a concentration of 125 ppm and dried by the air, the treated pots were set in a greenhouse. Untreated pots were placed next to the treated pots. Those treated and untreated plants were inoculated with spore suspension. Protective effect of the test compounds by vapor was thus checked. The effect was examined 14 days after the inoculation of the spores.
0: Disease sign is observed on the whole leaf.
3: Disease sign is observed on the leaf in about 50%.
5: Disease sign is observed on the leaf in about 30%.
7: Disease sign is observed on the leaf in about 20%.
9: a little disease sign is observed.
(§1) (1) Test methods and evaluation are the same as those in Tests 2, 4 and 6.

Sphaerotheca fuliginea [2] = test: Control test to powdery mildew of cucumber by vapor (filter paper disks)
Procedure: (1) The first leaves of young cucumber (Cultivar: Matsukaze) planted in pot of 9 cm in diameter were inoculated with spore suspension of Sphaerotheca fuliginea. After the plants were kept in a greenhouse for 2 days, thin cover plates, 15 mm in diameter, were put on the first leaves. Filter paper disks soaked with 80 μl of test solution at a concentration of 31.3, 7.8, 2.0 or 0.5 ppm were put on the plates for 3 days. Disease degrees were observed 14 days after the inoculation.
It is evaluated as + when an inhibition zone was observed around the plate, as ± when the inhibition zone has nearly the same diameter (8 mm) as that of plate or as - when there is no inhibition zone.
as §1

Botrytis cinerea = test: Control test of Botrytis rot (gray mold) of cucumber
Procedure: (1) Seedlings of cucumber (Cultivar: Matsukaze) were planted in a pot of 9 cm in diameter. The first leaf was sprayed with 3 ml each of solutions containing the test compound at the concentration of 125 or 31.3 ppm and the plant was dried by the air. After inoculation of the spores of Botrytis cinerea, the plants were kept at 20°±2° C. and 90-100% humidity ((i) protective spraying). Alternatively, the spores were inoculated at first and when the leaves suffered a little (about 2 days after), the solutions of the test compounds were sprayed ((ii) curative spraying). Evaluation was practised 3 days after the inoculation. Percent disease control was calculated by the ratio of diameter of diseased area in treated and untreated plants.
as §1

Puccinia coronata = test: Control test of crown rust of oat; conditions: 125 ppm
Procedure: (1) Young oats (Cultivar: Pc38) grown in pots in a greenhouse were (i) sprayed with 10 ml each of solution of the test compounds at a prescribed concentration and after air-drying, they were inoculated with 15 mg of uredospores of Puccinia coronata per 20 pots (protective spraying) or (ii) sprayed with the test solution 3 days after inoculation of uredospores. After each plant was kept at 20°-25° C. in a greenhouse for 2 weeks, number of uredia was counted on the first leaf.

Fusarium oxysporum = test: Control test to damping-off of cucumber (Fusarium oxysporum); conditions: soil drench, 14 days
Procedure: (§2) (1) The fungus causing damping-off of cucumber seedlings, Rhizoctonia solani or Fusarium oxysporum was cultured on a wheat bran medium at 28° C. for 5 days, which was mixed with sterilized soil and cultured for 2 days to prepare the inoculum. Sterilized soil (150 g) was put into a pot of 9 cm in diameter. The surface of the spot was covered with the above inoculum. […] Twenty cucumber seeds (Cultivar: Matsukaze) were sown 2 days after. The pots were kept at 30°±2° C. for 14 days. The infection was observed 14 days after and disease degree and percent disease degree were obtained by setting an evaluation index for each disease sympton.
(§3) (2) Evaluation [formula] wherein a: number of seeds without germination b: number of seedlings showing damping-off c: number of wilted seedlings d: number of seedlings being a little brownish in cotyledons or at the bottom of the stem e: number of uninfected seedlings [formula] wherein a: number of seeds without germination or seedlings with damping-off b: number of wilted seedlings c: number of seedlings being a little brownish in cotyledons or at the bottom of the stem d: number of uninfected seedlings [formula]

Rhizoctonia solani = test: Control test to damping-off of cucumber (Rhizoctonia solani); conditions: soil drench, 14 days
Procedure: as §2, §3

Sclerotinia sclerotiorum = test: Control test to Sclerotinia rot of cucumber
Excerpt: (1) This test was practised in the same manner as in the above test, control test of Botrytis rot (gray mold) of cucumber, except for using the mycelium of Sclerotinia sclerotiorum as inoculm. The same as in test 2.

O[C@]1(c2ccc(F)cc2)CCCC[C@H]1n1cncn1 (relative stereo) [Trans-isomer of Compound 28, 1-(4-fluorophenyl)-2-(1,2,4-triazol-1-yl)cyclohexanol, reference compound]
Powdery mildew, Foliar Treatment, Curative Effect (Sphaerotheca fuliginea [1]; Table 9, 0.03 ppm): 0 | Powdery mildew, Foliar Treatment, Protective Effect (Sphaerotheca fuliginea [1]; Table 9, 0.03 ppm): 0 | Powdery mildew, Foliar Treatment, Curative Effect (Sphaerotheca fuliginea [1]; Table 9, 0.12 ppm): 0 | Powdery mildew, Foliar Treatment, Protective Effect (Sphaerotheca fuliginea [1]; Table 9, 0.12 ppm): 0 | Powdery mildew, Foliar Treatment, Curative Effect (Sphaerotheca fuliginea [1]; Table 9, 0.5 ppm): 0 | Powdery mildew, Foliar Treatment, Protective Effect (Sphaerotheca fuliginea [1]; Table 9, 0.5 ppm): 0 | Powdery mildew, Soil Treatment, Protective Effect (Sphaerotheca fuliginea [1]; Table 9, 0.5 ppm): 0 | Powdery mildew, Foliar Treatment, Curative Effect (Sphaerotheca fuliginea [1]; Table 9, 2.0 ppm): 9 | Powdery mildew, Foliar Treatment, Protective Effect (Sphaerotheca fuliginea [1]; Table 9, 2.0 ppm): 0 | Powdery mildew, Soil Treatment, Protective Effect (Sphaerotheca fuliginea [1]; Table 9, 2.0 ppm): 0 | Powdery mildew, Soil Treatment, Protective Effect (Sphaerotheca fuliginea [1]; Table 9, 7.8 ppm): 0 | Powdery mildew, Soil Treatment, Protective Effect (Sphaerotheca fuliginea [1]; Table 9, 31.3 ppm): 9 | Powdery mildew, Vapor Effect (Sphaerotheca fuliginea [2]; Table 9, 2.0 ppm): - | Powdery mildew, Vapor Effect (Sphaerotheca fuliginea [2]; Table 9, 7.8 ppm): - | Powdery mildew, Vapor Effect (Sphaerotheca fuliginea [2]; Table 9, 31.3 ppm): - | Gray Mold, Percent Disease Control, Curative Spraying (Botrytis cinerea; Table 9, 7.8 ppm): 0% | Gray Mold, Percent Disease Control, Protective Spraying (Botrytis cinerea; Table 9, 7.8 ppm): 3% | Gray Mold, Percent Disease Control, Curative Spraying (Botrytis cinerea; Table 9, 31.3 ppm): 0% | Gray Mold, Percent Disease Control, Protective Spraying (Botrytis cinerea; Table 9, 31.3 ppm): 5% | Gray Mold, Percent Disease Control, Curative Spraying (Botrytis cinerea; Table 9, 125 ppm): 9% | Gray Mold, Percent Disease Control, Protective Spraying (Botrytis cinerea; Table 9, 125 ppm): 0%

CC(C)(C)C(=O)C(Oc1ccc(Cl)cc1)n1cncn1 (stereo not shown) [Triadimefon, reference compound]
Foliar Treatment, Curative Effect (Sphaerotheca fuliginea [1]; second Table 4, 0.5 ppm): 0 | Foliar Treatment, Protective Effect (Sphaerotheca fuliginea [1]; second Table 4, 0.5 ppm): 0 | Soil Treatment, Protective Effect (Sphaerotheca fuliginea [1]; second Table 4, 0.5 ppm): 0 | Foliar Treatment, Curative Effect (Sphaerotheca fuliginea [1]; second Table 4, 2.0 ppm): 9 | Foliar Treatment, Protective Effect (Sphaerotheca fuliginea [1]; second Table 4, 2.0 ppm): 7 (Disease sign is observed on the leaf in about 20%.) | Soil Treatment, Protective Effect (Sphaerotheca fuliginea [1]; second Table 4, 2.0 ppm): 0 | Foliar Treatment, Curative Effect (Sphaerotheca fuliginea [1]; second Table 4, 7.8 ppm): 10 | Foliar Treatment, Protective Effect (Sphaerotheca fuliginea [1]; second Table 4, 7.8 ppm): 9 | Soil Treatment, Protective Effect (Sphaerotheca fuliginea [1]; second Table 4, 7.8 ppm): 3 (Disease sign is observed on the leaf in about 50%.) | Foliar Treatment, Curative Effect (Sphaerotheca fuliginea [1]; second Table 4, 31.3 ppm): 10 | Foliar Treatment, Protective Effect (Sphaerotheca fuliginea [1]; second Table 4, 31.3 ppm): 10 | Soil Treatment, Protective Effect (Sphaerotheca fuliginea [1]; second Table 4, 31.3 ppm): 10 | Percent Disease Control, Curative Spraying (Puccinia coronata): 100% | Percent Disease Control, Protective Spraying (Puccinia coronata): 100% | Protective Effect by Vapor (Sphaerotheca fuliginea [2]; Table 6, 0.5 ppm): - | Protective Effect by Vapor (Sphaerotheca fuliginea [2]; Table 6, 2.0 ppm): - | Protective Effect by Vapor (Sphaerotheca fuliginea [2]; Table 6, 7.8 ppm): - | Protective Effect by Vapor (Sphaerotheca fuliginea [2]; Table 6, 31.3 ppm): -

O[C@@]1(c2ccc(Cl)s2)CCCCC[C@H]1n1cncn1 (relative stereo) [Compound 13, cis-1-(5-chloro-2-thienyl)-2-(1,2,4-triazol-1-yl)cycloheptanol]
Protective Index, Foliar Treatment (Sphaerotheca fuliginea [1]): 10 | Protective Index, Soil Treatment (Sphaerotheca fuliginea [1]): 10 | Disease Degree (Fusarium oxysporum; 500 ppm): 100 | Percent Disease Control (Fusarium oxysporum; 500 ppm): 0% | Disease Degree (Rhizoctonia solani; 500 ppm): 5 | Percent Disease Control (Rhizoctonia solani; 500 ppm): 95% | Percent Disease Control, Curative Spraying (Sclerotinia sclerotiorum; 125 ppm): 95% | Percent Disease Control, Protective Spraying (Sclerotinia sclerotiorum; 125 ppm): 100% | Percent Disease Control, Curative Spraying (Botrytis cinerea; Table 2, 125 ppm): 94% | Percent Disease Control, Protective Spraying (Botrytis cinerea; Table 2, 125 ppm): 100%

O[C@@]1(c2ccc(F)cc2)CCCCC[C@H]1n1cncn1 (relative stereo) [Compound 30]
Foliar Treatment, Curative Effect (Sphaerotheca fuliginea [1]; second Table 4, 0.5 ppm): 7 (Disease sign is observed on the leaf in about 20%.) | Foliar Treatment, Protective Effect (Sphaerotheca fuliginea [1]; second Table 4, 0.5 ppm): 0 | Soil Treatment, Protective Effect (Sphaerotheca fuliginea [1]; second Table 4, 0.5 ppm): 0 | Foliar Treatment, Curative Effect (Sphaerotheca fuliginea [1]; second Table 4, 2.0 ppm): 10 | Foliar Treatment, Protective Effect (Sphaerotheca fuliginea [1]; second Table 4, 2.0 ppm): 9 | Soil Treatment, Protective Effect (Sphaerotheca fuliginea [1]; second Table 4, 2.0 ppm): 0 | Foliar Treatment, Curative Effect (Sphaerotheca fuliginea [1]; second Table 4, 7.8 ppm): 10 | Foliar Treatment, Protective Effect (Sphaerotheca fuliginea [1]; second Table 4, 7.8 ppm): 10 | Soil Treatment, Protective Effect (Sphaerotheca fuliginea [1]; second Table 4, 7.8 ppm): 10 | Foliar Treatment, Curative Effect (Sphaerotheca fuliginea [1]; second Table 4, 31.3 ppm): 10 | Foliar Treatment, Protective Effect (Sphaerotheca fuliginea [1]; second Table 4, 31.3 ppm): 10 | Soil Treatment, Protective Effect (Sphaerotheca fuliginea [1]; second Table 4, 31.3 ppm): 10 | Disease Degree (Rhizoctonia solani; 31.3 ppm): 18 | Percent Disease Control (Rhizoctonia solani; 31.3 ppm): 82% | Percent Disease Control, Curative Spraying (Sclerotinia sclerotiorum; 31.3 ppm): 94% | Percent Disease Control, Protective Spraying (Sclerotinia sclerotiorum; 31.3 ppm): 89% | Percent Disease Control, Curative Spraying (Sclerotinia sclerotiorum; 125 ppm): 96% | Percent Disease Control, Protective Spraying (Sclerotinia sclerotiorum; 125 ppm): 100% | Protective Effect by Vapor (Sphaerotheca fuliginea [2]; Table 6, 0.5 ppm): - | Protective Effect by Vapor (Sphaerotheca fuliginea [2]; Table 6, 2.0 ppm): - | Protective Effect by Vapor (Sphaerotheca fuliginea [2]; Table 6, 7.8 ppm): + | Protective Effect by Vapor (Sphaerotheca fuliginea [2]; Table 6, 31.3 ppm): + | Percent Disease Control, Curative Spraying (Botrytis cinerea; Table 2, 31.3 ppm): 86% | Percent Disease Control, Protective Spraying (Botrytis cinerea; Table 2, 31.3 ppm): 89% | Percent Disease Control, Curative Spraying (Botrytis cinerea; Table 2, 125 ppm): 94% | Percent Disease Control, Protective Spraying (Botrytis cinerea; Table 2, 125 ppm): 100%

Cc1ccccc1C(=O)Nc1cccc(OC(C)C)c1 [Mepronil, reference compound]
Disease Degree (Rhizoctonia solani; 47 ppm): 77 | Percent Disease Control (Rhizoctonia solani; 47 ppm): 23% | Disease Degree (Rhizoctonia solani; 750 ppm): 5 | Percent Disease Control (Rhizoctonia solani; 750 ppm): 95%

O=C1C2CC=CCC2C(=O)N1SC(Cl)(Cl)Cl (stereo not shown) [Captan, reference compound]
Disease Degree (Fusarium oxysporum; 800 ppm): 0 | Percent Disease Control (Fusarium oxysporum; 800 ppm): 100%

O[C@@]1(c2cccc3ccccc23)CCCC[C@H]1n1cncn1 (relative stereo) [Compound 1, cis-1-(1-naphthyl)-2-(1,2,4-triazol-1-yl)/cyclohexanol]
Protective Index, Foliar Treatment (Sphaerotheca fuliginea [1]): 10 | Protective Index, Soil Treatment (Sphaerotheca fuliginea [1]): 5 (Disease sign is observed on the leaf in about 30%.) | Percent Disease Control, Curative Spraying (Puccinia coronata): 100% | Percent Disease Control, Protective Spraying (Puccinia coronata): 100%
